# Key:
# [1] = system: bovine heart mitochondria deactivated by treatment with acetone (succinate oxidase activity); experiment: Mitochondrial respiration activating effect (succinate oxidase oxygen consumption); assay type: biochemical; conditions: 5 n mole added; 23° C.; succinate substrate; acetone-treated mitochondria
# Procedure: The effect of activating the respiration of bovine heart mitochondria deactivated by treatment with acetone was evaluated by the method of Lester and Fleischer (Biochim. Biophys. Acta, vol. 113, p. 519, 1966). The respiration activating effect was expressed in terms of oxygen consumption due to succinate oxidase activity, succinic acid being the substrate.
# *The rate was measured at 23° C. using an oxygen electrode
# apparatus (Gilson's model KIC). Composition of the reaction medium (2 ml)
# 0.2 M sucrose, 10 mM Trishydrochloric acid (pH 7.4), 20 mM KCl, 3 mM
# MgCl2, 50 μM EDTA.2Na, 1.99 mg (as protein) acetonetreated
# mitochondria, 50 μM potassium succinate, 0.2 mg cytochrome C, and 5
# μl 1% Nikkol OP10 ® (polyoxyethylene octylphenyl ether; Produced b
# Nikko Chemicals) solution of the test sample (in the case of the test
# sample) or 5 μl 1% Nikkol OP10 ® (Polyoxyethylene octylphenyl
# ether; Produced by Nikko Chemicals) (in the case of the control).
# SHRSP [2] = experiment: Cerebral apoplexy preventing effect; assay type: in vivo, rat
# Procedure: The SHRSP, fed with high sodium chloride level, are liable to develop cerebral apoplexy (cerebral hemorrhage or hemorrhagic infarction) with high incidence. The compound of the invention (I, n=10) was administered in admixture with the diet to a group of 12 male SHRSP.
# ^1 8week-old male SHRSP
# ^2 14week-old male SHRSP
# ^3 Number of apoplectic cases/number of animals used.
# [3] = system: Spontaneously hypertensive rats; experiment: Protecting effect against heart failure (drug-induced cardiac insufficiency), spontaneously hypertensive rats; assay type: in vivo, rat; conditions: administration period 10 days
# [4] = 2-week oral repeated dose toxicity (Reference Example 8); assay type: in vivo; conditions: gum arabic suspension, 100 mg/kg or 500 mg/kg daily for 2 weeks
# Procedure: The compound of the present invention (I, n=10) was suspended in a gum arabic solution and oraly administered consecutively for 2 weeks at a daily dose of 100 mg/kg or 500 mg/kg, and examination of general condition, urinalysis and blood examination were carried out during the course of administration. Histopathology was done at the termination of the administration.
# SHRSP [5] = experiment: Cerebral ischemia-protecting effect, carotid artery ligated on both sides; assay type: in vivo, rat
# Description: Spontaneously hypertensive rats showing a strong tendency to cerebral apoplexy (hereinafter abbreviated to SHRSP) (Okamoto et al., Circulation Res., vol. 34-35, pp. 1-143, 1974), were newly established in 1974. When the carotid artery is ligated on both sides, apoplectic symptoms such as convulsion fit, respiratory distress and coma, which lead to death (the incidence being 100%), are observed.
# The time to the manifestation of the symptoms and the time to death were prolonged also by the administration of 100 mg/kg for 3 days or 35 mg/kg for 14 days.
# SHRSP [6] = experiment: Improving effect on symptoms of cerebral apoplexy; assay type: in vivo, rat; conditions: 100 mg/kg/day oral, 21 days after first symptom
# Description: SHRSP's were fed under sodium chloride loading as in Example 3. Upon manifestation of the first symptom, the sodium chloride loading was discontinued and at the same time oral administration of the compound of the invention (I, n=10) was commenced. After administration for 3 weeks, the dosed group was compared with the control group in respect of the severity of the symptoms. The severity was scored (0 for no symptoms to 5 for the severest) for each individual and the results were expressed in terms of the total score for the respective group. As shown by the results set forth in Table 4, the administration of the compound of the present invention alleviated the clinical symptoms after manifestation of the apoplexy. The body weight loss after the apoplexy was also depressed.
# normal rat = experiment: Preventing effect against development of malignant hypertension (unilateral kidney excision, desoxycorticosterone acetate, 1% sodium chloride); assay type: in vivo; conditions: 50 mg/kg oral twice a day
# Procedure: The kidney of each normal rat was unilaterally excised, and desoxycorticosterone acetate (10 mg/kg) was administered subcutaneously once a week. The rats were given a 1% aqueous sodium chloride solution as drinking water. On the day of operation and thereafter, the compound of the invention (I, n=10) was orally administered at a dose of 50 mg/kg twice a day, and the above indexes of aggravation were determined.
# SHRSP [7] = experiment: Antihypertensive action; assay type: in vivo, rat; conditions: 35 mg/kg daily oral
# Description: | ^1 Each group consisted of 12 animals.
# normal rats = experiment: Protecting effect against heart failure (Adriamycin-induced), normal rats; assay type: in vivo, rat; conditions: Adriamycin 1 mg/kg/day i.p., compound 10 mg/kg/day oral, 10 days
# Procedure: Adriamycin (1 mg/kg/day) was intraperitoneally administered to normal rats and, after 2 weeks, the compound of the invention (I, n=10) (10 mg/kg/day) was orally administered, and the cardiac functional state was examined electrocardiographically and biochemically. […] In addition, the tissue lactic acid level, an index of myocardinal energy state, was lowered.
# [8] = Experiment 2, 100 mg/kg/day, 3 days
# [9] = Experiment 3, 35 mg/kg/day, 14 days
structure (smiles),measurement,setting,value
"COC1=C(OC)C(=O)C(CCCCCCCCCCCCCCCCCCO)=C(C)C1=O [I (n = 18), 6-(18-hydroxyoctadecyl)-2,3-dimethoxy-5-methyl-1,4-benzoquinone]",Oxygen consumption rate,[1],44.5 ± 3.2 Oxygen (n atom)/minute/mg prot
"COC1=C(OC)C(=O)C(CCCCCCCCCCO)=C(C)C1=O [I (n = 10), 2,3-dimethoxy-5-methyl-6-(10-hydroxydecyl)-1,4-benzoquinone]",Oxygen consumption rate,[1],45.0 ± 3.7 Oxygen (n atom)/minute/mg prot
same,Spontaneous manifestation of cerebral apoplexy (in words),SHRSP [2]; 10 SHRSP fed without sodium chloride loading,can prevent manifestation of cerebral apoplexy
same,Incidence of cerebral apoplexy (number of apoplectic cases/number of animals used),"SHRSP [2]; Experiment 1, sodium chloride loading +, 35 mg/kg/day in diet, 40 days, 8-week-old male SHRSP",7/12
same,Incidence of cerebral apoplexy (number of apoplectic cases/number of animals used),"SHRSP [2]; Experiment 2, no sodium chloride loading, 35 mg/kg/day, 45 days, 14-week-old male SHRSP",5/10
same,Cerebral apoplexy compared with the control group (in words),"SHRSP [2]; SHRSP fed with high sodium chloride level, compound in admixture with the diet, 12 male SHRSP",significantly (P<0.05 by Wilcoxon's two sample test) inhibited
same,Heart lactic acid on wet weight basis,[3],1.9 ± 0.12 µmol/g
same,QRS width,[3],2.9 ± 0.2 ms
same,"Abnormalities (general condition, urinalysis, blood examination, histopathology)",[4],could not reveal any abnormalities ascribable to the administration
same,Time to convulsion fit,"SHRSP [5]; Experiment 1, 15 mg/kg/day oral, 21 days",119 ± 13 min
same,Time to convulsion fit,SHRSP [5]; [8],117 ± 15 min
same,Time to death,SHRSP [5]; [8],235 ± 27 min
same,Time to convulsion fit,SHRSP [5]; [9],93 ± 14 min
same,Time to death,SHRSP [5]; [9],242 ± 29 min
same,Body weight loss,SHRSP [6],8 ± 3%
same,Severity of symptoms (total score of group; 0 to 5 per individual),SHRSP [6],20 ± 3
same,Body weight,normal rat; day 0,224 ± 4 g
same,Urine protein,normal rat; day 0,47 ± 1 mg/day/250 g body weight
same,Body weight,normal rat; day 14,269 ± 8 g
same,Urine protein,normal rat; day 14,225 ± 38 mg/day/250 g body weight
same,Body weight,normal rat; day 21,274 ± 13 g
same,Urine protein,normal rat; day 21,367 ± 68 mg/day/250 g body weight
same,Blood pressure,SHRSP [7]; day 0,175 ± 3 mmHg
same,Blood pressure,SHRSP [7]; day 7,188 ± 4 mmHg
same,Blood pressure,SHRSP [7]; day 14,199 ± 3 mmHg
same,Blood pressure,SHRSP [7]; day 21,208 ± 4 mmHg
same,Heart lactic acid on wet weight basis,normal rats,1.65 ± 0.1 µmol/g
same,QRS width,normal rats,4.6 ± 0.4 ms

# From patent US4436753A, “Method for therapy of ischemic disease” (Takeda Chemical Industries, Ltd., priority 1979, dated 1984)
